Measured values reported in US6399561B1, “Methods and compositions for bleaching a dye in solution” (Novozymes A/S, priority 1998, dated 2002).

Tests used:
Type in all cases: biochemical
[1] = molecular target: T1, Polyporus pinsitus laccase (Trametes villosa, UniProt Q99044); experiment: Bleaching of methyl orange using rPpL and NOH-type enhancing agents (initial bleaching rate); conditions: rPpL solution diluted 1:200, 0.2 mM mediator, 30° C., large negative numbers = best performance
T1 construct: made in house
T1 sequence (Q99044 22-520): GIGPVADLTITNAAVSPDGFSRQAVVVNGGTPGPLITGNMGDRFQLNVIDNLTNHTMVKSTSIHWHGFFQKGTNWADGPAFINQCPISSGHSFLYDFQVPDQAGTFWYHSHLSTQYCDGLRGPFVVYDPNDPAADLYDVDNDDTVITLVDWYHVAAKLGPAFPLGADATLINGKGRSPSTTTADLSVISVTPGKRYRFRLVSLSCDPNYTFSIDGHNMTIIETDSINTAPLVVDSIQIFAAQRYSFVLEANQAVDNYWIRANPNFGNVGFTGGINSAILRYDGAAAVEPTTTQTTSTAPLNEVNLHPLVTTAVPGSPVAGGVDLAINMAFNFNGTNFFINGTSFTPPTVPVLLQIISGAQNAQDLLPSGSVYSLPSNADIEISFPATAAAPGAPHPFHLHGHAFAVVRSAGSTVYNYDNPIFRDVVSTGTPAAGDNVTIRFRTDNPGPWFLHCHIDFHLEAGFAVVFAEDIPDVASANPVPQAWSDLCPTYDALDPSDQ
Protocol: (§1) Britton-Robinson buffer is composed of:
(§2) Methyl orange (Merck, Germany)
(§3) Reactions were started by addition of enzyme. Absorbance at 464 nm was followed for 3 minutes (readings every 5 seconds) on a Cobas Fara at 30° C. Initial bleaching rates were determined from the first linear part of the progress curves.
(§4) The N—OH compounds listed above were tested as laccase mediators in bleaching of methyl orange with three recombinant laccases (rPpL, rMtL and rCcL) at various pH values. Large negative numbers represent the best performance.

[2] = tested on: Recombinant Myceliophthora thermophila laccase (rMtL); experiment: Bleaching of methyl orange using rMtL and NOH-type enhancing agents (initial bleaching rate); conditions: rMtL solution diluted 1:300, 0.2 mM mediator, 30° C., large negative numbers = best performance
Protocol: as §1, §2, §3, §4

[3] = tested on: Recombinant Coprinus cinereus laccase (rCcL); experiment: Bleaching of methyl orange using rCcL and NOH-type enhancing agents (initial bleaching rate); conditions: rCcL solution diluted 1:200, 0.2 mM mediator, 30° C., large negative numbers = best performance
Protocol: as §1, §2, §3, §4

Compound	Initial changes per minute in A464 nm of methyl orange using rPpL ([1]; pH 4)	Initial changes per minute in A464 nm of methyl orange using rPpL ([1]; pH 5)	Initial changes per minute in A464 nm of methyl orange using rPpL ([1]; pH 6)	Initial changes per minute in A464 nm of methyl orange using rPpL ([1]; pH 7)	Initial changes per minute in A464 nm of methyl orange using rMtL ([2]; pH 4)	Initial changes per minute in A464 nm of methyl orange using rMtL ([2]; pH 5)	Initial changes per minute in A464 nm of methyl orange using rMtL ([2]; pH 6)	Initial changes per minute in A464 nm of methyl orange using rMtL ([2]; pH 7)	Initial changes per minute in A464 nm of methyl orange using rCcL ([3]; pH 4)	Initial changes per minute in A464 nm of methyl orange using rCcL ([3]; pH 5)	Initial changes per minute in A464 nm of methyl orange using rCcL ([3]; pH 6)	Initial changes per minute in A464 nm of methyl orange using rCcL ([3]; pH 7)	Initial changes per minute in A464 nm of methyl orange using rCcL ([3]; pH 8)
On1nnc2ccccc21 [1-hydroxybenzotriazole, 1-Hydroxybenzotriazole]	−0.206 per minute	−0.077 per minute	−0.017 per minute	−0.005 per minute	−0.050 per minute	−0.019 per minute	−0.007 per minute	−0.002 per minute	−0.016 per minute	−0.018 per minute	−0.019 per minute	−0.017 per minute	−0.005 per minute
CC[n+]1ccc(-c2ccc(S(=O)(=O)[O-])cc2)o1.O [2-Ethyl-5-phenylisoxazolium-4′-sulfonate, H2O]	−0.017 per minute	−0.017 per minute	−0.006 per minute	0.001 per minute	−0.012 per minute	−0.004 per minute	−0.002 per minute	0.000 per minute	0.005 per minute	0.000 per minute	−0.006 per minute	−0.004 per minute	−0.001 per minute
O=c1c2ccccc2nnn1O [3-hydroxy-1,2,3-benzotriazin-4(3H)-one, 3-Hydroxy-1,2,3-benzotriazin-4(3H)-one]	−0.020 per minute	−0.020 per minute	−0.008 per minute	0.000 per minute	−0.016 per minute	−0.011 per minute	−0.001 per minute	0.002 per minute	0.004 per minute	−0.004 per minute	−0.011 per minute	−0.008 per minute	−0.002 per minute
O=c1[nH]c(=O)[nH]c(=O)[nH]1 [Cyanuric acid]	−0.037 per minute	−0.022 per minute	−0.011 per minute	−0.002 per minute	−0.013 per minute	0.010 per minute	−0.002 per minute	0.000 per minute	−0.005 per minute	−0.008 per minute	−0.012 per minute	−0.012 per minute	−0.005 per minute
[O-][n+]1ccc2ccccc2c1 [Iso-quinoline-N-oxide]	−0.074 per minute	−0.037 per minute	−0.014 per minute	−0.002 per minute	−0.017 per minute	−0.010 per minute	−0.004 per minute	0.000 per minute	−0.002 per minute	−0.005 per minute	−0.008 per minute	−0.010 per minute	−0.004 per minute
O=C(c1ccccc1)N(O)c1ccccc1 [N-benzoyl-N-phenylhydroxylamine, N-Benzoyl-N-phenylhydroxylamine]	−0.732 per minute	−1.402 per minute	−0.420 per minute	−0.012 per minute	−0.269 per minute	−0.296 per minute	−0.082 per minute	−0.012 per minute	−0.163 per minute	−0.247 per minute	−0.529 per minute	−0.592 per minute	−0.124 per minute
O=C1c2ccccc2C(=O)N1O [N-hydroxyphthalimide]	−0.050 per minute	−0.035 per minute	−0.011 per minute	−0.001 per minute	−0.019 per minute	−0.016 per minute	−0.005 per minute	0.000 per minute	−0.006 per minute	−0.007 per minute	−0.014 per minute	−0.011 per minute	−0.004 per minute
CS(=O)(=O)c1ccc2ccn(OC(=O)c3ccccc3)c2c1 [PFC-202, Benzoic acid[6-(methylsulphonyl)indol-1-yl]ester]	−0.047 per minute	−0.035 per minute	−0.001 per minute	0.000 per minute	−0.020 per minute	−0.017 per minute	0.001 per minute	0.005 per minute	−0.005 per minute	−0.010 per minute	−0.016 per minute	0.000 per minute	0.011 per minute
